Among the data in article doi:10.1101/2020.03.04.976639v2 (biorxiv, 2020) are Km and Ki values, retold here.

For assay [1], the target named is T1, PaThiL (P. aeruginosa thiamine monophosphate kinase, ThiL) (Pseudomonas aeruginosa, UniProt Q9HWX7).
T1 sequence (Q9HWX7 1-322): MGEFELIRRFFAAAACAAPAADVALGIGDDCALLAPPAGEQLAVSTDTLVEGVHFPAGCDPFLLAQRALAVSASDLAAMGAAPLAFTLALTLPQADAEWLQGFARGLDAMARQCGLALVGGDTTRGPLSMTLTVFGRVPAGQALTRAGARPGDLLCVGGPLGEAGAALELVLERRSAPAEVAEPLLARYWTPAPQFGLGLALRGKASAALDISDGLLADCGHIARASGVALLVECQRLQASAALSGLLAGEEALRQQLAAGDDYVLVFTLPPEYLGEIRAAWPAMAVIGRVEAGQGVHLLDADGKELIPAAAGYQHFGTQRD
Briefly: luminescent kinase assay. To be noted: random Bi-Bi fit; TMP 0.78-50 µM; 50 mM Tris-HCl pH 8.0, 5 mM MgCl2, 350 mM KCl. The class given is biochemical.

Assay [2] deals with T1, PaThiL (P. aeruginosa thiamine monophosphate kinase, ThiL). Description: luminescent kinase assay. The class given is biochemical.

For the compound `Nc1ncnc2c1ncn2[C@@H]1O[C@H](COP(=O)(O)OP(=O)(O)OP(=O)(O)O)[C@@H](O)[C@H]1O` [ATP], in assay [1], the Km stood at 111 ± 8 µM.
In assay [2], `O=C(O)Cc1c[nH]c2ccc(O)cc12` [5-hydroxyindolacetic acid] came in with a Ki of 114 ± 27 µM.
